Data reported in US20230382909A1, “BICYCLIC COMPOUNDS” (Aligos Therapeutics, Inc., priority 2022, published 2023).

Experiments:
[1] = test system: HBV; test: HBV-DNA antiviral assay using HepG2.117 cells; type: cell-based, HBV genotype D; settings: Hepatitis B virus, HepG2.117, 72 h
Method: (§1) The following assay procedure describes the HBV antiviral assay, using HepG2.117 cells, which carry a stably integrated genotype D HBV genome under the control of a Tet-off promoter, and intracellular HBV DNA quantification as endpoint. Cell viability is assessed in parallel by measuring the intracellular ATP content using CellTiter-Glo 2.0 (Promega).
On day 0, HepG2.117 cells (which are maintained in routine cell culture with doxycycline present in the medium at a final concentration of 1 μg/mL) are seeded in 96-well plates (white with clear bottom) at a density of 2.0×10^4 cells/well (0.1 mL/well) in medium without doxycycline to induce pgRNA transcription and subsequent formation of HBV particles. The cells are incubated at 37° C. and 5% CO2.
(§2) On day 1, medium is removed from each well, the test articles are diluted in culture medium without doxcycyline and 100 μL was added to cell culture wells (9 concentrations, 4-fold dilution). For each plate, 6 untreated (merely DMSO) wells are included. The final concentration of DMSO in the culture medium is 2%. Each plate is prepared in duplicate (one for HBV DNA extraction, one for CellTiter-Glo 2.0 measurement). The cells are incubated at 37° C. and 5% CO2 for 3 days.
(§3) On day 4, cell viability is assessed using CellTiter-Glo 2.0 and cell lysates are prepared for HBV DNA extraction and subsequent quantification by qPCR.
HBV DNA Quantification by qPCR
Medium is removed from each well and 100 μL of 0.33% NP-40 in H2O was added to each well. Plates are sealed, incubated at 4° C. for 5 mins, vortexed extensively and centrifuged briefly. Next, 35 μL of lysate is added to 65 μL QuickExtract DNA Extraction Solution (Epicentre) in a PCR plate for each well. PCR plate is incubated at 65° C. for 6 mins, 98° C. for 2 mins and finally cooled to 4° C. HBV DNA is then quantified by qPCR with HBV-specific primers and probes as specified in Table 3 using the Bio-Rad SSOAdvanced Universal Probes Supermix on a CFX96 machine (Bio-Rad). The PCR cycle program consisted of 95° C. for 3 mins, followed by 40 cycles at 95° C. for 10 sec and 60° C. for 30 sec.
A DNA standard is prepared by dilution of an IDT gBlock corresponding to the amplicon with concentrations ranging from 10^2 to 10^8 copies/input (i.e., per 4 μL) and used to generate a standard curve by plotting Cq values vs. HBV DNA standard concentration. The quantity of HBV DNA in each sample is determined by interpolating from the standard curve.
(§4) Cell viability is calculated as follows: % Cell viability=(luminescence value of test sample)/(average luminescence value of 2% DMSO control)×100%. HBV DNA inhibition was calculated as follows: 100−(HBV DNA copy number of test sample)/(average HBV DNA copy number of 2% DMSO control)×100%. No normalization to entecavir is required due to the excellent dynamic window of this assay. The CC50, EC50 and EC9o values were determined by dose-response curves fitted using non-linear regression.

[2] = Cell viability by CellTiter-Glo 2.0 (intracellular ATP content) in HepG2.117 cells; type: cell-based; settings: human, CellTiter-Glo 2.0, 3 days incubation
Method: as §1, §2, §3
Using the other plates, the cell viability is quantified by CellTiter-Glo 2.0 according to the manufacturer's manual. In brief, 100 μL of reagent solution is added to the culture plates and shaken for 2′. The plates are incubated at rt for 10 min and luminescence signal is subsequently measured on a VarioSkan Lux (ThermoFisher) plate reader.
as §4

Row | Structure (SMILES) | EC50 [1] | CC50 at 3 days [2]
1 | Cc1cc(C)n(-c2nc3c(c(=O)n2-c2ccc(OC[C@H](C)O)nc2)C[C@@H](C)N(C(=O)c2ccc(Br)c(C(F)(F)F)c2)C3)n1 [Compound 28, (6R)-7-[4-bromo-3-(trifluoromethyl)benzoyl]-2-(3,5-dimethylpyrazol-1-yl)-3-[6-[(2S)-2-hydroxypropoxy]-3-pyridyl]-6-methyl-6,8-dihydro-5H-pyrido[3,4-d]pyrimidin-4-one] | < 0.05 µM | > 0.5 µM
2 | CNc1cnc(-n2c(-n3nc(C)cc3C)nc3c(c2=O)C[C@@H](C)N(C(=O)c2ccc(Br)c(C(F)(F)F)c2)C3)nc1 [Compound 42, (R)-7-(4-bromo-3-(trifluoromethyl)benzoyl)-2-(3,5-dimethyl-1H-pyrazol-1-yl)-6-methyl-3-(5-(methylamino)pyrimidin-2-yl)-5,6,7,8-tetrahydropyrido[3,4-d]pyrimidin-4(3H)-one] | < 0.05 µM | > 0.5 µM
3 | Cc1cc(C)n(-c2nc3c(c(=O)n2-c2ccc(O[C@H]4C[C@@H](O)C4)cc2)C[C@@H](C)N(C(=O)c2ccc(Br)c(C(F)(F)F)c2)C3)n1 [Compound 37, (R)-7-(4-bromo-3-(trifluoromethyl)benzoyl)-2-(3,5-dimethyl-1H-pyrazol-1-yl)-3-(4-((1s,3S)-3-hydroxycyclobutoxy)phenyl)-6-methyl-5,6,7,8-tetrahydropyrido[3,4-d]pyrimidin-4(3H)-one] | < 0.05 µM | > 0.5 µM
4 | Cc1cc(C)n(-c2nc3c(c(=O)n2-c2ccc4c(c2)ncn4C)C[C@@H](C)N(C(=O)c2ccc(Br)c(C(F)(F)F)c2)C3)n1 [Compound 1, (R)-7-(4-bromo-3-(trifluoromethyl)benzoyl)-2-(3,5-dimethyl-1H-pyrazol-1-yl)-6-methyl-3-(1-methyl-1H-benzo[d]imidazol-5-yl)-5,6,7,8-tetrahydropyrido[3,4-d]pyrimidin-4(3H)-one] | < 0.05 µM | > 0.5 µM
5 | Cc1cc(C)n(-c2nc3c(c(=O)n2-c2ccc(N[C@H]4C[C@@H](O)C4)nc2)C[C@@H](C)N(C(=O)c2ccc(Br)c(C(F)(F)F)c2)C3)n1 [Compound 35, (R)-7-(4-bromo-3-(trifluoromethyl)benzoyl]-2-(3,5-dimethyl-1H-pyrazol-1-yl)-3-(6-(((1s,3S)-3-hydroxycyclobutyl)amino)pyridin-3-yl)-6-methyl-5,6,7,8-tetrahydropyrido[3,4-d]pyrimidin-4(3H)-one] | < 0.05 µM | > 0.5 µM
6 | Cc1cc(C)n(-c2nc3c(c(=O)n2-c2ccc(N4CCN(C)CC4)nc2)C[C@@H](C)N(C(=O)c2ccc(Br)c(C(F)(F)F)c2)C3)n1 [Compound 11, (R)-7-(4-bromo-3-(trifluoromethyl)benzoyl)-2-(3,5-dimethyl-1H-pyrazol-1-yl)-6-methyl-3-(6-(4-methylpiperazin-1-yl)pyridin-3-yl)-5,6,7,8-tetrahydropyrido[3,4-d]pyrimidin-4(3H)-one] | < 0.05 µM | > 0.5 µM
7 | Cc1cc(C)n(-c2nc3c(c(=O)n2-c2cc(F)c4c(c2)ncn4C)C[C@@H](C)N(C(=O)c2ccc(Br)c(C(F)(F)F)c2)C3)n1 [Compound 22, (6R)-7-[4-bromo-3-(trifluoromethyl)benzoyl]-2-(3,5-dimethylpyrazol-1-yl)-3-(7-fluoro-1-methyl-benzimidazol-5-yl)-6-methyl-6,8-dihydro-5H-pyrido[3,4-d]pyrimidin-4-one] | < 0.05 µM | > 0.5 µM
8 | Cc1cc(C)n(-c2nc3c(c(=O)n2-c2ccc(N4CCOCC4)nc2)C[C@@H](C)N(C(=O)c2ccc(Br)c(C(F)(F)F)c2)C3)n1 [Compound 27, (6R)-7-[4-bromo-3-(trifluoromethyl)benzoyl]-2-(3,5-dimethylpyrazol-1-yl)-6-methyl-3-(6-morpholino-3-pyridyl)-6,8-dihydro-5H-pyrido[3,4-d]pyrimidin-4-one] | < 0.05 µM | > 0.5 µM
9 | Cc1cc(C)n(-c2nc3c(c(=O)n2-c2ccc(N4CCN(C(C)C)CC4)nc2)C[C@@H](C)N(C(=O)c2ccc(Br)c(C(F)(F)F)c2)C3)n1 [Compound 34, (6R)-7-[4-bromo-3-(trifluoromethyl)benzoyl]-2-(3,5-dimethylpyrazol-1-yl)-3-[6-(4-isopropylpiperazin-1-yl)-3-pyridyl]-6-methyl-6,8-dihydro-5H-pyrido[3,4-d]pyrimidin-4-one] | < 0.05 µM | > 0.5 µM
10 | Cc1cc(C)n(-c2nc3c(c(=O)n2-c2ncc(N)cn2)C[C@@H](C)N(C(=O)c2ccc(Br)c(C(F)(F)F)c2)C3)n1 [Compound 41, (R)-3-(5-aminopyrimidin-2-yl)-7-(4-bromo-3-(trifluoromethyl)benzoyl)-2-(3,5-dimethyl-1H-pyrazol-1-yl)-6-methyl-5,6,7,8-tetrahydropyrido[3,4-d]pyrimidin-4(3H)-one] | < 0.05 µM | > 0.5 µM
11 | Cc1cc(C)n(-c2nc3c(c(=O)n2-c2ccc4c(c2)ncn4CC(F)F)C[C@@H](C)N(C(=O)c2ccc(Br)c(C(F)(F)F)c2)C3)n1 [Compound 23, (6R)-7-[4-bromo-3-(trifluoromethyl)benzoyl]-3-[1-(2,2-difluoroethyl)benzimidazol-5-yl]-2-(3,5-dimethylpyrazol-1-yl)-6-methyl-6,8-dihydro-5H-pyrido[3,4-d]pyrimidin-4-one] | < 0.05 µM | > 0.5 µM
